How the values were obtained:
Assay in all cases: relative viability (nuclei count vs DMSO), 5 days (fraction); higher = more cells survive
AGI-6780 + OSI-027 = compound: O=C(Nc1cccc(C(F)(F)F)c1)Nc1cc(S(=O)(=O)NC2CC2)ccc1-c1ccsc1 [AGI-6780] + COc1cccc2cc(-c3nc([C@H]4CC[C@H](C(=O)O)CC4)n4ncnc(N)c34)[nH]c12 [OSI-027] (partner 0.5 µM)
How it was run: (§1)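 The day after seeding in 1536-well plates, lung cancer cell lines were treated by pin tool with a single drug, or with a fixed anchor-drug dose together with five library-drug doses (not always all listed) in √10 steps. After 5 days, a combined fix-and-stain solution (final 0.05% Triton X-100, 1% formaldehyde, 1 ug/ml Hoechst) was added. Nuclei counted on 4× images gave relative viability as treated counts over vehicle counts, reported as the median of duplicate plates.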

AGI-6780 + Crizotinib = compound: O=C(Nc1cccc(C(F)(F)F)c1)Nc1cc(S(=O)(=O)NC2CC2)ccc1-c1ccsc1 [AGI-6780] + C[C@@H](Oc1cc(-c2cnn(C3CCNCC3)c2)cnc1N)c1c(Cl)ccc(F)c1Cl [Crizotinib] (partner 1 µM)
How it was run: as §1

AGI-6780 + Linsitinib = compound: O=C(Nc1cccc(C(F)(F)F)c1)Nc1cc(S(=O)(=O)NC2CC2)ccc1-c1ccsc1 [AGI-6780] + C[C@]1(O)C[C@@H](c2nc(-c3ccc4ccc(-c5ccccc5)nc4c3)c3c(N)nccn32)C1 [Linsitinib] (partner 1 µM)
How it was run: as §1

AGI-6780 + Tozasertib = compound: O=C(Nc1cccc(C(F)(F)F)c1)Nc1cc(S(=O)(=O)NC2CC2)ccc1-c1ccsc1 [AGI-6780] + Cc1cc(Nc2cc(N3CCN(C)CC3)nc(Sc3ccc(NC(=O)C4CC4)cc3)n2)n[nH]1 [Tozasertib] (partner 0.1 µM)
How it was run: as §1

| Cell Line | relative viability (AGI-6780 + OSI-027; first compound 0.08 µM) | relative viability (AGI-6780 + OSI-027; first compound 0.253 µM) | relative viability (AGI-6780 + OSI-027; first compound 0.8 µM) | relative viability (AGI-6780 + OSI-027; first compound 2.53 µM) | relative viability (AGI-6780 + OSI-027; first compound 8 µM) | relative viability (AGI-6780 + Crizotinib; first compound 0.08 µM) | relative viability (AGI-6780 + Crizotinib; first compound 0.253 µM) | relative viability (AGI-6780 + Crizotinib; first compound 0.8 µM) | relative viability (AGI-6780 + Crizotinib; first compound 2.53 µM) | relative viability (AGI-6780 + Crizotinib; first compound 8 µM) | relative viability (AGI-6780 + Linsitinib; first compound 0.08 µM) | relative viability (AGI-6780 + Linsitinib; first compound 0.253 µM) | relative viability (AGI-6780 + Linsitinib; first compound 0.8 µM) | relative viability (AGI-6780 + Linsitinib; first compound 2.53 µM) | relative viability (AGI-6780 + Linsitinib; first compound 8 µM) | relative viability (AGI-6780 + Tozasertib; first compound 0.08 µM) | relative viability (AGI-6780 + Tozasertib; first compound 0.253 µM) | relative viability (AGI-6780 + Tozasertib; first compound 0.8 µM) | relative viability (AGI-6780 + Tozasertib; first compound 2.53 µM) | relative viability (AGI-6780 + Tozasertib; first compound 8 µM) |
| --- | --- | --- | --- | --- | --- | --- | --- | --- | --- | --- | --- | --- | --- | --- | --- | --- | --- | --- | --- | --- |
| NCI-H460 | 0.752 | 0.639 | 0.845 | 0.574 | 0.694 | 0.912 | 0.963 | 1.19 | 0.759 | 1.06 | 0.796 | 0.788 | 0.936 | 0.741 | 0.72 | 0.537 | 0.453 | 0.491 | 0.349 | 0.176 |
| NCI-H1793 | 0.302 | 0.27 | 0.359 | 0.197 | 0.293 |  |  |  |  |  | 0.849 | 0.881 | 1.11 | 0.526 | 0.93 | 0.355 | 0.318 | 0.351 | 0.332 | 0.312 |
| NCI-H2347 | 0.403 | 0.491 | 0.333 | 0.378 | 0.507 | 0.733 | 0.738 | 0.59 | 0.663 | 0.801 | 1.04 | 0.849 | 0.716 | 0.998 | 1.02 | 0.596 | 0.644 | 0.518 | 0.373 | 0.644 |
| HCC-15 | 0.743 | 0.763 | 0.783 | 0.458 | 0.725 | 0.831 | 0.833 | 0.834 | 0.813 | 0.825 | 0.897 | 0.867 | 0.941 | 0.777 | 0.821 | 0.625 | 0.438 | 0.547 | 0.186 | 0.458 |
| NCI-H1915 | 0.678 | 0.663 | 0.594 | 0.465 | 0.623 | 0.885 | 0.88 | 0.902 | 0.857 | 0.835 | 1.1 | 1.04 | 1.08 | 1.06 | 1.08 | 0.432 | 0.418 | 0.469 | 0.282 | 0.428 |
| NCI-H1734 | 0.588 | 0.665 | 0.621 | 0.442 | 0.573 | 0.753 | 0.648 | 0.757 |  | 0.752 | 1.01 | 0.975 | 0.728 |  | 0.945 | 0.22 | 0.294 | 0.246 | 0.242 | 0.268 |
| NCI-H2342 | 0.63 | 0.721 | 0.58 | 0.57 | 0.662 |  |  |  |  |  |  |  |  |  |  | 0.56 | 0.52 | 0.593 | 0.43 | 0.597 |
| COR-L 105 | 0.783 | 0.669 | 0.719 | 0.582 | 0.72 | 0.899 | 0.738 | 1.01 | 0.708 | 0.848 | 0.989 | 0.946 | 0.941 | 0.808 | 0.952 | 0.402 | 0.357 | 0.388 | 0.336 | 0.441 |
| PC-14 | 0.833 | 0.822 | 0.814 | 0.678 | 0.922 | 0.902 | 0.867 | 0.971 | 0.851 | 0.928 | 0.983 | 0.925 | 0.832 | 0.903 | 0.937 | 0.57 | 0.583 | 0.658 | 0.582 | 0.569 |
| NCI-H2087 | 0.866 | 0.564 | 0.608 | 0.405 | 0.626 | 0.869 | 0.922 | 0.851 | 0.86 | 0.919 | 1.06 | 0.891 | 0.85 | 0.984 | 0.883 | 0.288 | 0.213 | 0.224 | 0.27 | 0.284 |
| NCI-H1395 | 0.632 | 0.846 | 0.674 | 0.53 | 0.662 |  |  |  |  |  | 1.14 | 1.16 | 1.12 |  | 1.14 | 0.778 | 0.774 | 0.893 | 0.666 | 0.674 |
| NCI-H1648 | 0.26 | 0.292 | 0.258 | 0.277 | 0.242 |  |  |  |  |  |  |  |  |  |  | 0.45 | 0.581 | 0.639 | 0.401 | 0.378 |
| NCI-H520 | 0.293 | 0.3 | 0.303 | 0.189 | 0.28 | 0.936 | 0.729 | 1.12 | 0.753 | 0.774 | 1.04 | 0.959 | 0.979 | 0.753 | 1.04 | 0.486 | 0.441 | 0.426 | 0.327 | 0.446 |
| A549 |  |  |  |  |  | 0.763 | 0.765 | 0.855 | 0.625 | 0.836 | 0.585 | 0.594 | 0.701 | 0.452 | 0.545 |  |  |  |  |  |
| LC-2-ad | 0.829 | 0.875 | 0.874 | 0.638 | 0.794 | 0.579 | 0.491 | 0.467 | 0.412 | 0.508 | 0.824 | 0.9 | 0.878 | 0.882 | 0.791 | 0.433 | 0.477 | 0.447 | 0.327 | 0.468 |
| EMC-BAC-2 | 0.383 | 0.384 | 0.338 | 0.301 | 0.427 | 0.791 | 0.728 | 0.763 | 0.668 | 0.78 | 0.845 | 0.82 | 0.835 | 0.782 | 0.822 | 0.278 | 0.295 | 0.249 | 0.253 | 0.324 |
| EBC-1 |  |  |  |  |  | 0.199 | 0.184 | 0.186 | 0.175 | 0.183 | 0.861 | 1.13 | 0.885 | 0.836 | 0.94 |  |  |  |  |  |
| NCI-H1792 |  | 0.71 | 0.704 | 0.663 | 0.643 | 0.836 | 0.993 | 1.07 | 0.931 | 0.989 | 0.53 | 0.519 | 0.519 | 0.544 | 0.408 |  |  |  |  |  |
| NCI-H23 | 0.705 | 0.623 | 0.747 | 0.346 | 0.672 | 0.56 | 0.633 | 0.629 | 0.539 | 0.544 | 0.622 | 0.582 | 0.693 | 0.39 | 0.672 | 0.347 | 0.365 | 0.35 | 0.379 | 0.343 |
